In patent publication US11510924B2, “Deuterated pharmaceutical compositions and methods of treating cardiovascular diseases” (priority 2017, dated 2022):

What was measured:
volunteer subjects = assay: Heart rate effect of API combinations in volunteer subjects (Examples 1-3); settings: added API in combination with aminophylline and clenbuterol; small group of volunteer subjects
Description: To test this hypothesis, an experiment was conducted, where a combination of aminophylline and clenbuterol was administered to a small group of volunteer subjects. […] For each subject in this example, an electrocardiogram (ECG) was used to monitor heart rate and A-V conduction abnormalities.
To further improve the effect of the aminophylline and clenbuterol combination on the heart rate, various combinations with active pharmaceutical ingredients were investigated. Without being bound by theory, the hypothesis in this experiment was to utilize a combination of APIs with similar mechanism of action or with the same side effect (a secondary therapeutical effects) on heart as aminophylline and clenbuterol. Oryzanol, nicotinamide, or anisodamine in combination with aminophylline and clenbuterol was tested on a small group of volunteer subjects.
Nifedipine (a calcium channel blocker) was then selected and tested.
A combination of betahistine with aminophylline, clenbuterol, and nifedipine was then prepared and tested on a small group of healthy volunteer subjects.

patient = assay: Clinical observation of heart rate in patients treated for other indications; settings: vertigo patient, after administering betahistine
bradycardia patients = assay: API combinations tested on bradycardia patients (Examples 1-3); type: in vivo, human; settings: observed on some patients
Description: During the testing of the 4-API combination on bradycardia patients, a few adverse side effects were observed on some patients. […] Therefore, a further study was conducted to determine how to avoid or reduce such side effects. […] To confirm this finding, clenbuterol was replaced by albuterol in the 4-API combination, which has a similar secondary therapeutic effect on heart rate. […] Daily electrocardiograms were used to monitor the bradycardia patients. […] With this improvement, the effectiveness of the treatment on bradycardia patients was retained while the undesired side effects were minimized or eliminated.

| Compound | effect on heart rate compared with aminophylline and clenbuterol combination (Example 1) (volunteer subjects) | further results |
| --- | --- | --- |
| CN1[C@H]2C[C@H](OC(=O)[C@H](CO)c3ccccc3)C[C@@H]1[C@@H](O)C2 [anisodamine] | no further improvement | – |
| CNCCc1ccccn1 [betahistine] | – | effect on heart rate (patient): noticeably increased |
| CC(C)(C)NCC(O)c1cc(Cl)c(N)c(Cl)c1 (centres unmarked) [clenbuterol] | – | adverse side effects (bradycardia patients): these side effects were related to clenbuterol |
| NC(=O)c1cccnc1 [nicotinamide] | no further improvement | – |
| Oryzanol | no further improvement | – |
